Consider six compounds from US11400078B2, “Methods of treatment for cholestatic and fibrotic diseases” (Genfit, priority 2016, dated 2022).

pIC50: −log10 of the molar value.

The test concerns TGFβ1-induced expression of α-SMA protein in human HSC. Description: α-SMA ELISA in TGFβ1-activated human primary hepatic stellate cells (single agents and NTZ/statin or TZ/statin combination matrix, EOB/EOHSA). It is filed as cell-based. Conditions: hHSC, TGFβ1 1 ng/mL, 48 h; for pIC50: Homo sapiens, 1 h preincubation, ELISA, read-out: IC50, reduction of α-SMA level in TGFβ-induced HSC; for antifibrotic activity as single agent (α-SMA, dose-response): result in words. The method, then:
After 48 hours of incubation, the expression of α-SMA was measured by ELISA. […] Data are presented as mean (triplicates)±standard deviation (SD). Statistical analyses were performed by one-way ANOVA followed by Bonferroni post-hoc tests, using Sigma Plot 11.0 software. […] After 48 hours of incubation, the expression of α-SMA was measured by ELISA. […] Data are presented as mean (triplicates)±standard deviation (SD). Statistical analyses were performed by one-way ANOVA followed by Bonferroni post-hoc tests, using Sigma Plot 11.0 software. […] Combinations were tested in a dose-response matrix format and analyzed according to the excess over Bliss (EOB) additivism model. Dilution series of NTZ (column) and pitavastatin (row) were prepared, including their respective DMSO controls. […] Data are presented as mean of quadruplicates. (B) EOB scores were calculated as described in Materials and Methods. Any compound pair with positive EOB values was considered synergistic (colored from light grey to black). […] Data are presented as mean (quadruplicates)±standard deviation (SD). Statistical analyses between single agent vs product combination were performed by student t-test or Mann-Whitney Rank Sum Test using Sigma Plot 11.0 software. [*: p<0.05; **: p<0.01; ***: p<0.001]. […] Cell-culture flasks were coated with poly-L lysine (Sigma cat #P4707) for a better adherence. The checkerboard matrix was adopted. NTZ or TZ and statin stocks were serially diluted in DMSO in a 5-points series in a row (statin) and a column (NTZ or TZ) of a 96-well plate. […] Then, 2-fold and 4-fold higher and lower concentrations were selected. […] The human primary hepatic stellate cells (hHSC) (Innoprot) were cultured under standard conditions, as described above. […] Plates were then incubated for 30 min on ice using a plate shaker, before storage at -20° C. The level of α-SMA was measured using a Sandwich ELISA. Briefly, the wells of an ELISA plate were first coated with the capture antibody (mouse monoclonal anti-ACTA2, Abnova) at 4° C. overnight. […] The cell lysates were transferred into the wells for binding to the capture antibody for a period of 2 h at room temperature. After the washing procedure, the detection antibody (biotinylated mouse monoclonal anti-ACTA2, Abnova) was added for 2 hours at room temperature followed by 3 washes. For the detection, an HRP-conjugated streptavidin (R&D Systems cat #DY998) was first applied for 30 min at room temperature. […] Upon oxidation, TMB forms a water-soluble blue reaction product that becomes yellow with addition of sulfuric acid (solution stop), enabling accurate measurement of the intensity at 450 nm using a spectrophotometer. The developed color is directly proportional to the amount of α-SMA present in the lysate. […] Expected Bliss additivism score (E) was firstly determined by the equation: E=(A+B)-(A×B) where A and B are the percentage inhibitions converted into fractions within a range of 0 to 1 of NTZ (A) and a given statin (B) at a given dose. […] For each product combination (NTZ+statin), an additional total Bliss score was calculated by summation of all EOB. […] The significance of the observed differences between NTZ/statin or TZ/statin and single agents were estimated by a student t-test or Mann-Whitney Rank Sum Test using Sigma Plot 11.0 software [*: p<0.05; **: p<0.01; ***: p<0.001].
In general terms: ELISA stands for enzyme-linked immunosorbent assay.

A word on the pIC50: it is the IC50 on a negative log10 scale, so that one unit is a factor of ten. Regarding `CC(C)c1c(C(=O)Nc2ccccc2)c(-c2ccccc2)c(-c2ccc(F)cc2)n1CC[C@@H](O)C[C@@H](O)CC(=O)O` [atorvastatin], the pIC50 is 5.52 to 6.00.

With `CC(C)n1c(/C=C/C(O)CC(O)CC(=O)O)c(-c2ccc(F)cc2)c2ccccc21` (stereo not drawn) [fluvastatin], the pIC50 was over 6.00.

Turning to `CC[C@H](C)C(=O)O[C@H]1C[C@@H](C)C=C2C=C[C@H](C)[C@H](CC[C@@H]3C[C@@H](O)CC(=O)O3)[C@H]21` [lovastatin], the pIC50 was 5.52 to 6.00.

For `O=C(O)C[C@H](O)C[C@H](O)/C=C/c1c(C2CC2)nc2ccccc2c1-c1ccc(F)cc1` [pitavastatin], the pIC50 was over 6.00.

Consider `CC[C@H](C)C(=O)O[C@H]1C[C@H](O)C=C2C=C[C@H](C)[C@H](CC[C@@H](O)C[C@@H](O)CC(=O)O)[C@H]21` [pravastatin], for which the “antifibrotic activity as single agent (α-SMA, dose-response)” value was “inactive”.

With `CC(C)c1nc(N(C)S(C)(=O)=O)nc(-c2ccc(F)cc2)c1/C=C/[C@@H](O)C[C@@H](O)CC(=O)O` [rosuvastatin], the “antifibrotic activity as single agent (α-SMA, dose-response)” value is “significant antifibrotic activity but only at the highest doses”.
